From US8679776B2, “Activatable dyes” (University of Massachusetts, priority 2007, dated 2014)
Each block holds one molecule with its values, some of them ahead of it.

Assays:
[1] = Photoactivation of NVOC-Oxazine 16 in vitro (acetonitrile solution, long-wave UV); format: physicochemical
Text: When novel, non-fluorescent caged dye (16) is irradiated with long-wave UV light (about 360 nm), the NVOC group is photolytically removed, and rapidly decarboxylates to form the oxazine 1 leuco dye (15). The non-fluorescent leuco dye rapidly reacts with oxygen in solution to generate the brightly fluorescent oxazine 1 dye (14). […] In such an evaluation, maximal emission was observed after less than four minutes using a hand-held longwave UV lamp. Irradiation in a fluorescence microscope, with either arc lamp or laser illumination, photoactivates this dye in less than 1 second due to the much higher photon flux through the microscope objective.
Referring to FIGS. 15A and 15B, NVOC-Oxazine 16 was dissolved in acetonitrile (2 mL) and placed in a fluorescence cuvette. The rate of photo-uncaging was monitored by continuous excitation at 365 nm and emission detection at 665 nm in a SPEX Fluoromax-3. Under these conditions, fluorescence activation reached a maximum in approximately two minutes.

CHO-K1 cells = experiment: Photoactivation in live mammalian tissue culture cells; format: cell-based
Experimental: Photoactivation of NVOC-MR121 in live CHO-K1 cells before (a) and after (b, c) brief exposure to DAPI-filtered light (˜100 ms). In (b) the field was limited to two cells, while in (c) the entire field was illuminated (40× objective). Cells were imaged with a Cy5 filter set.
Referring to FIGS. 16A (before) and 16B (after photoactivation), CHO-K1 cells were incubated with 1 μM of NVOC-Oxazine 16 for one hour, then imaged on a fluorescence microscope at 40× with a Cy5 filter set (Zeiss Axiovert 200M). […] All of these latent fluorophores are chemically stable in cells, and can be efficiently photoactivated 24 hours after initial incubation.

Transferrin = biological target: T1, Transferrin (Homo sapiens, UniProt P02787); experiment: Labeling of transferrin with caged dye, SDS-PAGE imaged before and after photoactivation; conditions: for near-IR fluorescence before photoactivation / near-IR fluorescence after photoactivation: 630 nm excitation, 670 nm long pass filter; for near-IR fluorescence after photoactivation: hand-held longwave UV lamp for 1 min
T1 construct: purchased Sigma-Aldrich
T1 sequence (P02787 20-698, species assumed): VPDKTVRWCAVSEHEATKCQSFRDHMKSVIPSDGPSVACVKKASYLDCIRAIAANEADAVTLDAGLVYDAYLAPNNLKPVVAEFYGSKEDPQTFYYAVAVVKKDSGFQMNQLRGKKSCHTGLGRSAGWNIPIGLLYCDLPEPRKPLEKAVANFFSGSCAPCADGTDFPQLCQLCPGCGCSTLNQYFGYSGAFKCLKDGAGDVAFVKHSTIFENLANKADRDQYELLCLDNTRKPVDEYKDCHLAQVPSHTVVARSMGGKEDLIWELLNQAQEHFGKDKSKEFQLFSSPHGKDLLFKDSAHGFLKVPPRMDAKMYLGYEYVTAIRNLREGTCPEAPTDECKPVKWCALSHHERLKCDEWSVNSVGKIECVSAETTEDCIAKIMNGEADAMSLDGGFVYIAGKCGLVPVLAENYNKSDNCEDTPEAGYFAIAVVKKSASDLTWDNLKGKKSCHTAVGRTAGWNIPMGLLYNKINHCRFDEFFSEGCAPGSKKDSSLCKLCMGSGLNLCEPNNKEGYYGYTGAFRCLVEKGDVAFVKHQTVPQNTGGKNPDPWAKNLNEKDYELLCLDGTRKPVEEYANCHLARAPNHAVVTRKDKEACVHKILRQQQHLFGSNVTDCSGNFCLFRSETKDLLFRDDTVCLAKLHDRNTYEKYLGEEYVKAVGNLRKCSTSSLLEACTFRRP
Experimental: FIG. 20 is an SDS-PAGE gel of transferrin labeled with a caged oxazine dye, imaged before and after photoactivation. Transferrin in lanes 1-3 is labeled with NVOC-MR121 (25). Lanes 4-6 are labeled with tetramethyl-rhodamine (TMR).
Transferrin (Sigma-Aldrich®, 5 mg) was dissolved in 0.5 ml of 0.1M NaHCO3, pH 8.3. The caged oxazine dye 25 (0.2 mg) in 0.02 ml of DMSO and added to the transferrin solution and incubated at room temperature for one hour. The labeled protein was separated from the dye on a PD-10 column, and analyzed by SDS-PAGE (FIG. 20). The transferrin conjugate was initially non-fluorescent (FIG. 20a).

maximal emission ([1]; active dye generated by uncaging): about 665 nm
Molecule: CCN(CC)c1ccc2nc3ccc(=[N+](CC)CC)cc-3oc2c1.[O-][Cl+3]([O-])([O-])[O-] [oxazine 1, reference compound]

Molecule: Bis-NH NVOC-Oxazine [Compound 41]
staining pattern after photoactivation (CHO-K1 cells): more diffuse staining

cell permeability (CHO-K1 cells): cell-permeable
Molecule: NVOC-Oxazine [Compound 16]
cellular fluorescence after brief exposure to DAPI-filtered light (CHO-K1 cells; 1 μM, one hour incubation, 365 nm, <1 second, Cy5 filter set): dramatic increase in cellular fluorescence
time to maximal emission after exposure to long-wave UV light ([1]; acetonitrile solution, hand-held longwave UV lamp, emission about 665 nm): less than four
time for fluorescence activation to reach a maximum ([1]; acetonitrile, continuous excitation at 365 nm, emission detection at 665 nm, SPEX Fluoromax-3): approximately two
time to photoactivate in a fluorescence microscope ([1]; arc lamp or laser illumination through the microscope objective): less than 1 second

Molecule: TMR-Tf: transferrin labeled with tetramethyl-rhodamine (TMR) [reference compound]
fluorescence before photoactivation, TMR channel (Transferrin; SDS-PAGE, 520 nm excitation and 575DF20 filter): readily visible

Molecule: transferrin conjugate: transferrin labeled with caged oxazine dye NVOC-MR121 NHS ester 25
near-IR fluorescence before photoactivation (Transferrin; SDS-PAGE): non-fluorescent
near-IR fluorescence before photoactivation (Transferrin; SDS-PAGE, listed as labeled transferrin): No near-IR fluorescence is visible
near-IR fluorescence after photoactivation (Transferrin): bright near-IR fluorescence
near-IR fluorescence after photoactivation (Transferrin; listed as labeled transferrin): brightly fluorescent in the near-IR
